Results from patent US9302999B2, “Substituted triazoles as herbicides” (E. I. DU PONT DE NEMOURS AND COMPANY, priority 2012, dated 2016).

How the values were obtained:
Type in all cases: in vivo
[1] = system: crabgrass, large (large crabgrass, Digitaria sanguinalis); assay: Test A pre-/postemergence: crabgrass, large; details: for Crabgrass, Large plant response rating: Postemergence; for Plant response rating, Crabgrass, Large: Preemergence
In short: (§1)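 Each species received preemergence soil-directed spraying and, at the same time, postemergence treatment of seedlings 2–10 cm tall. Formulation: non-phytotoxic solvent mixture including surfactant. Response assessed visually about ten days on, relative to untreated controls, 0–100 scale.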

[2] = system: corn (Zea mays); assay: Test A pre-/postemergence: corn; details: for Corn plant response rating: Postemergence; for Plant response rating, Corn: Preemergence
In short: as §1

[3] = system: barnyardgrass (Echinochloa crus-galli); assay: Test C flooded paddy test: barnyardgrass; details: scale 0 to 100 (0 no effect, 100 complete control)
In short: (§2)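 Plants were grown to the 2-leaf stage, pots flooded to 3 cm above soil, and test compounds applied directly to the paddy water, with that depth held throughout. After 13 to 15 days in a greenhouse, injury was visually rated against controls on a 0 (no effect) to 100 (complete control) scale.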

[4] = system: wheat (Triticum aestivum); assay: Test A pre-/postemergence: wheat; details: for Wheat plant response rating: Postemergence; for Plant response rating, Wheat: Preemergence
In short: as §1

[5] = system: velvetleaf (Abutilon theophrasti); assay: Test A pre-/postemergence: velvetleaf; details: for Velvetleaf plant response rating: Postemergence; for Plant response rating, Velvetleaf: Preemergence
In short: as §1

[6] = system: morningglory (Ipomoea spp.); assay: Test A pre-/postemergence: morningglory; details: for Morningglory plant response rating: Postemergence; for Plant response rating, Morningglory: Preemergence
In short: as §1

[7] = system: sedge, umbrella (small-flower umbrella sedge, Cyperus difformis); assay: Test C flooded paddy test: sedge, umbrella; details: scale 0 to 100 (0 no effect, 100 complete control)
In short: as §2

[8] = system: pigweed (Amaranthus retroflexus); assay: Test A pre-/postemergence: pigweed; details: for Pigweed plant response rating: Postemergence; for Plant response rating, Pigweed: Preemergence
In short: as §1

[9] = system: rice (Oryza sativa); assay: Test C flooded paddy test: rice; details: scale 0 to 100 (0 no effect, 100 complete control)
In short: as §2

[10] = system: ducksalad (Heteranthera limosa); assay: Test C flooded paddy test: ducksalad; details: scale 0 to 100 (0 no effect, 100 complete control)
In short: as §2

[11] = system: barnyardgrass (Echinochloa crus-galli); assay: Test A pre-/postemergence: barnyardgrass; details: for Barnyardgrass plant response rating: Postemergence; for Plant response rating, Barnyardgrass: Preemergence
In short: as §1

[12] = system: foxtail, giant (giant foxtail, Setaria faberii); assay: Test A pre-/postemergence: foxtail, giant; details: for Foxtail, Giant plant response rating: Postemergence; for Plant response rating, Foxtail, Giant: Preemergence
In short: as §1

[13] = 125 g ai/ha, 0 to 100 scale, 0 is no effect, 100 is complete control
[14] = 500 g ai/ha, visual rating on 0 to 100 scale (0 no effect, 100 complete control), approximately ten days
[15] = 125 g ai/ha, 0 to 100 scale (0 no effect, 100 complete control)
[16] = 500 g ai/ha, 0 to 100 scale, 0 is no effect, 100 is complete control
[17] = Flood (flooded paddy test), 62 g ai/ha, visual rating after 13 to 15 days
[18] = Flood (flooded paddy test), 125 g ai/ha, visual rating after 13 to 15 days
[19] = Flood (flooded paddy test), 250 g ai/ha, visual rating after 13 to 15 days

Compound: Cc1nn(-c2ccc(C(F)(F)F)cc2)nc1Cn1cc(C(F)(F)F)cn1 [Compound 32]
- Crabgrass, Large plant response rating [1, 13]: 20
- Crabgrass, Large plant response rating [1, 14]: 30
- Plant response rating, Crabgrass, Large [1, 15]: 10
- Plant response rating, Crabgrass, Large [1, 16]: 30
- Corn plant response rating [2, 13]: 0
- Corn plant response rating [2, 14]: 10
- Plant response rating, Corn [2, 15]: 0
- Plant response rating, Corn [2, 16]: 0
- Plant response rating, Barnyardgrass [3, 17]: 0
- Plant response rating, Barnyardgrass [3, 18]: 0
- Plant response rating, Barnyardgrass [3, 19]: 0
- Plant response rating, Barnyardgrass ([3]; Flood, 31 g ai/ha): 0
- Wheat plant response rating [4, 13]: 0
- Wheat plant response rating [4, 14]: 0
- Plant response rating, Wheat [4, 15]: 0
- Plant response rating, Wheat [4, 16]: 0
- Velvetleaf plant response rating [5, 13]: 20
- Velvetleaf plant response rating [5, 14]: 20
- Plant response rating, Velvetleaf [5, 15]: 0
- Plant response rating, Velvetleaf [5, 16]: 0
- Morningglory plant response rating [6, 13]: 10
- Morningglory plant response rating [6, 14]: 50
- Plant response rating, Morningglory [6, 15]: 0
- Plant response rating, Morningglory [6, 16]: 0
- Plant response rating, Sedge, Umbrella [7, 17]: 0
- Plant response rating, Sedge, Umbrella [7, 18]: 0
- Plant response rating, Sedge, Umbrella [7, 19]: 0
- Plant response rating, Sedge, Umbrella ([7]; Flood, 31 g ai/ha): 0
- Pigweed plant response rating [8, 13]: 60
- Pigweed plant response rating [8, 14]: 100
- Plant response rating, Pigweed [8, 15]: 0
- Plant response rating, Pigweed [8, 16]: 70
- Plant response rating, Rice [9, 17]: 0
- Plant response rating, Rice [9, 18]: 0
- Plant response rating, Rice [9, 19]: 0
- Plant response rating, Rice ([9]; Flood, 31 g ai/ha): 0
- Plant response rating, Ducksalad [10, 17]: 0
- Plant response rating, Ducksalad [10, 18]: 0
- Plant response rating, Ducksalad [10, 19]: 0
- Plant response rating, Ducksalad ([10]; Flood, 31 g ai/ha): 0
- Barnyardgrass plant response rating [11, 13]: 10
- Barnyardgrass plant response rating [11, 14]: 10
- Plant response rating, Barnyardgrass [11, 15]: 0
- Plant response rating, Barnyardgrass [11, 16]: 0
- Foxtail, Giant plant response rating [12, 13]: 10
- Foxtail, Giant plant response rating [12, 14]: 20
- Plant response rating, Foxtail, Giant [12, 15]: 10
- Plant response rating, Foxtail, Giant [12, 16]: 80

Compound: Cc1nn(-c2ccc(F)cc2)nc1Cn1cc(C(F)(F)F)nc1Cl [Compound 35]
- Crabgrass, Large plant response rating [1, 13]: 80
- Crabgrass, Large plant response rating [1, 14]: 90
- Plant response rating, Crabgrass, Large [1, 15]: 90
- Plant response rating, Crabgrass, Large [1, 16]: 100
- Corn plant response rating [2, 13]: 20
- Corn plant response rating [2, 14]: 50
- Plant response rating, Corn [2, 15]: 10
- Plant response rating, Corn [2, 16]: 30
- Plant response rating, Barnyardgrass [3, 17]: 0
- Plant response rating, Barnyardgrass [3, 18]: 0
- Plant response rating, Barnyardgrass [3, 19]: 30
- Plant response rating, Barnyardgrass ([3]; Flood, 31 g ai/ha): 0
- Wheat plant response rating [4, 13]: 10
- Wheat plant response rating [4, 14]: 60
- Plant response rating, Wheat [4, 15]: 0
- Plant response rating, Wheat [4, 16]: 0
- Velvetleaf plant response rating [5, 13]: 70
- Velvetleaf plant response rating [5, 14]: 100
- Plant response rating, Velvetleaf [5, 15]: 30
- Plant response rating, Velvetleaf [5, 16]: 50
- Morningglory plant response rating [6, 13]: 90
- Morningglory plant response rating [6, 14]: 100
- Plant response rating, Morningglory [6, 15]: 20
- Plant response rating, Morningglory [6, 16]: 50
- Plant response rating, Sedge, Umbrella [7, 17]: 75
- Plant response rating, Sedge, Umbrella [7, 18]: 80
- Plant response rating, Sedge, Umbrella [7, 19]: 80
- Plant response rating, Sedge, Umbrella ([7]; Flood, 31 g ai/ha): 75
- Pigweed plant response rating [8, 13]: 100
- Pigweed plant response rating [8, 14]: 100
- Plant response rating, Pigweed [8, 15]: 90
- Plant response rating, Pigweed [8, 16]: 100
- Plant response rating, Rice [9, 17]: 0
- Plant response rating, Rice [9, 18]: 0
- Plant response rating, Rice [9, 19]: 0
- Plant response rating, Rice ([9]; Flood, 31 g ai/ha): 0
- Plant response rating, Ducksalad [10, 17]: 65
- Plant response rating, Ducksalad [10, 18]: 70
- Plant response rating, Ducksalad [10, 19]: 75
- Plant response rating, Ducksalad ([10]; Flood, 31 g ai/ha): 40
- Barnyardgrass plant response rating [11, 13]: 40
- Barnyardgrass plant response rating [11, 14]: 90
- Plant response rating, Barnyardgrass [11, 15]: 60
- Plant response rating, Barnyardgrass [11, 16]: 90
- Foxtail, Giant plant response rating [12, 13]: 60
- Foxtail, Giant plant response rating [12, 14]: 90
- Plant response rating, Foxtail, Giant [12, 15]: 80
- Plant response rating, Foxtail, Giant [12, 16]: 100

Compound: Cc1nn(-c2ccc(C(F)(F)F)cc2)nc1Oc1cncc(C(F)(F)F)c1 [Compound 37]
- Crabgrass, Large plant response rating [1, 13]: 20
- Crabgrass, Large plant response rating [1, 14]: 70
- Plant response rating, Crabgrass, Large [1, 15]: 90
- Plant response rating, Crabgrass, Large [1, 16]: 100
- Corn plant response rating [2, 13]: 10
- Corn plant response rating [2, 14]: 20
- Plant response rating, Corn [2, 15]: 0
- Plant response rating, Barnyardgrass [3, 17]: 10
- Plant response rating, Barnyardgrass [3, 19]: 35
- Wheat plant response rating [4, 13]: 0
- Wheat plant response rating [4, 14]: 10
- Plant response rating, Wheat [4, 15]: 0
- Plant response rating, Wheat [4, 16]: 0
- Velvetleaf plant response rating [5, 13]: 20
- Velvetleaf plant response rating [5, 14]: 50
- Plant response rating, Velvetleaf [5, 15]: 0
- Plant response rating, Velvetleaf [5, 16]: 10
- Morningglory plant response rating [6, 13]: 20
- Morningglory plant response rating [6, 14]: 90
- Plant response rating, Morningglory [6, 15]: 0
- Plant response rating, Morningglory [6, 16]: 20
- Plant response rating, Sedge, Umbrella [7, 17]: 0
- Plant response rating, Sedge, Umbrella [7, 19]: 0
- Pigweed plant response rating [8, 13]: 80
- Pigweed plant response rating [8, 14]: 100
- Plant response rating, Pigweed [8, 15]: 70
- Plant response rating, Pigweed [8, 16]: 100
- Plant response rating, Rice [9, 17]: 10
- Plant response rating, Rice [9, 19]: 20
- Plant response rating, Ducksalad [10, 17]: 0
- Plant response rating, Ducksalad [10, 19]: 70
- Barnyardgrass plant response rating [11, 13]: 10
- Barnyardgrass plant response rating [11, 14]: 20
- Plant response rating, Barnyardgrass [11, 15]: 30
- Plant response rating, Barnyardgrass [11, 16]: 90
- Foxtail, Giant plant response rating [12, 13]: 30
- Foxtail, Giant plant response rating [12, 14]: 80
- Plant response rating, Foxtail, Giant [12, 15]: 90
- Plant response rating, Foxtail, Giant [12, 16]: 100

Compound: Cc1nn(-c2ccc(C(F)(F)F)cc2)nc1Oc1ccnc(OC(F)F)c1 [Compound 48]
- Crabgrass, Large plant response rating [1, 13]: 50
- Crabgrass, Large plant response rating [1, 14]: 90
- Plant response rating, Crabgrass, Large [1, 15]: 30
- Plant response rating, Crabgrass, Large [1, 16]: 100
- Corn plant response rating [2, 13]: 10
- Corn plant response rating [2, 14]: 30
- Plant response rating, Corn [2, 15]: 0
- Plant response rating, Corn [2, 16]: 0
- Plant response rating, Barnyardgrass [3, 17]: 10
- Plant response rating, Barnyardgrass [3, 19]: 30
- Wheat plant response rating [4, 13]: 10
- Wheat plant response rating [4, 14]: 20
- Plant response rating, Wheat [4, 15]: 0
- Plant response rating, Wheat [4, 16]: 0
- Velvetleaf plant response rating [5, 13]: 30
- Velvetleaf plant response rating [5, 14]: 50
- Plant response rating, Velvetleaf [5, 15]: 0
- Plant response rating, Velvetleaf [5, 16]: 0
- Morningglory plant response rating [6, 13]: 10
- Morningglory plant response rating [6, 14]: 90
- Plant response rating, Morningglory [6, 15]: 0
- Plant response rating, Morningglory [6, 16]: 20
- Plant response rating, Sedge, Umbrella [7, 17]: 0
- Plant response rating, Sedge, Umbrella [7, 19]: 45
- Pigweed plant response rating [8, 13]: 100
- Pigweed plant response rating [8, 14]: 100
- Plant response rating, Pigweed [8, 15]: 40
- Plant response rating, Pigweed [8, 16]: 90
- Plant response rating, Rice [9, 17]: 10
- Plant response rating, Rice [9, 19]: 20
- Plant response rating, Ducksalad [10, 17]: 20
- Plant response rating, Ducksalad [10, 19]: 65
- Barnyardgrass plant response rating [11, 13]: 10
- Barnyardgrass plant response rating [11, 14]: 30
- Plant response rating, Barnyardgrass [11, 15]: 0
- Plant response rating, Barnyardgrass [11, 16]: 30
- Foxtail, Giant plant response rating [12, 13]: 30
- Foxtail, Giant plant response rating [12, 14]: 70
- Plant response rating, Foxtail, Giant [12, 15]: 40
- Plant response rating, Foxtail, Giant [12, 16]: 100
